Test results reported in ChEMBL document CHEMBL3352665, “Trends in research of antitrypanosomal agents among synthetic heterocycles” (Eur J Med Chem, 2014).
Values belong to the compound of their own block, whether it stands above or below them.

Assays:
Trypanosoma cruzi [1] = assay: Antitrypanosomal activity against Trypanosoma cruzi assessed as growth inhibition; assay type: functional; details: read-out: ED50 (the source's name)
[2] = Selectivity ratio for human triosephosphate isomerase to Trypanosoma cruzi triosephosphate isomerase
Cruzipain = Cruzipain (Trypanosoma cruzi, UniProt P25779); assay: Inhibition of Trypanosoma cruzi cruzain
[3] = tested on: Trypanosoma brucei rhodesiense; assay: Antitrypanosomal activity against Trypanosoma brucei rhodesiense assessed as growth inhibition; assay type: functional; details: read-out: ED50 (the source's name)
Trypanosoma brucei [4] = assay: Antitrypanosomal activity against bloodstream forms of Trypanosoma brucei assessed as growth inhibition; assay type: functional, organism-based
[5] = Inhibition of Trypanosoma brucei PTR1; details: read-out: Ki(app)
Trypanosoma cruzi [6] = assay: Antitrypanosomal activity against epimastigote forms of Trypanosoma cruzi Y assessed as growth inhibition; assay type: functional, organism-based
Trypanosoma brucei [7] = assay: Antitrypanosomal activity against Trypanosoma brucei assessed as growth inhibition; assay type: functional, organism-based
[8] = molecular target: Triosephosphate isomerase, glycosomal (Trypanosoma cruzi) (UniProt P52270); assay: Inhibition of Trypanosoma cruzi triosephosphate isomerase at 50 uM
Trypanosoma brucei [9] = assay: Inhibition of Trypanosoma brucei triosephosphate isomerase at 50 uM

Sequence of Cruzipain (P25779 whole entry): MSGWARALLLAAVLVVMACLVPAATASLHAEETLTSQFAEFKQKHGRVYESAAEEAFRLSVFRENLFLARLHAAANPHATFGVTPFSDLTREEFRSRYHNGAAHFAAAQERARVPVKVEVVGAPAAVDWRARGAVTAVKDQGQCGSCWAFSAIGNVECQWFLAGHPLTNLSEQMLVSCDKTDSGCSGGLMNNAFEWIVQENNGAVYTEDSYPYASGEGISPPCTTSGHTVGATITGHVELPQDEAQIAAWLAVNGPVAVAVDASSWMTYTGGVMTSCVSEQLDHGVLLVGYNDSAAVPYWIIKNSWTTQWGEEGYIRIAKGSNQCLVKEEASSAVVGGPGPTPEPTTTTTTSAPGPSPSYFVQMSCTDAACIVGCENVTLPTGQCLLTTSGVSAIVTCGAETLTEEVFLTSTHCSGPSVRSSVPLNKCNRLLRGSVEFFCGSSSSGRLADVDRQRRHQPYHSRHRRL
Sequence of Triosephosphate isomerase, glycosomal (Trypanosoma cruzi) (P52270 whole entry): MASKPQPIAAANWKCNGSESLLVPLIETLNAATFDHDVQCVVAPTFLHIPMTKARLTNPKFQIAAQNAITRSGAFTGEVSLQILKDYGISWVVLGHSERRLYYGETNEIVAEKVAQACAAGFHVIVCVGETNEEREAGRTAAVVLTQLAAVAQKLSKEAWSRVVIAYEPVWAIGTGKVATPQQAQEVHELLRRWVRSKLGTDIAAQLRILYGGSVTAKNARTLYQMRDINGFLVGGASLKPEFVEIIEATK

SMILES: Cc1ccc2nc(-c3ccc(N)cc3)sc2c1
Selectivity ratio [2]: 200

SMILES: COc1ccccc1C(=O)c1cnc(NC2CCN(C(=O)Nc3ccccc3)CC2)nc1N
IC50 (Trypanosoma brucei [7]): 70 nM

SMILES: Nc1ccc(-c2nc3ccc(-c4ccc5nc(N)sc5c4)cc3s2)cc1
inhibition [8]: > 90%
inhibition (Trypanosoma brucei [9]): > 90%

SMILES: Nc1nc2cccc(-c3ccccc3)c2n1Cc1ccc(Cl)c(Cl)c1
Ki [5]: 7 nM

The remaining lines, values ahead:

EC50 (Trypanosoma cruzi [1]): 3000 nM
SMILES: CCCC/C(=N\NC(N)=S)c1ccccc1

IC50 (Cruzipain): 20400 nM
SMILES: Cc1ccc(SCC/C=N/NC2=NC(=O)C(C)S2)cc1 (configuration not stated)

IC50 (Cruzipain): 400 nM
SMILES: CC1SC(N/N=C/CCCSc2ccccc2)=NC1=O (configuration not stated)

EC50 [3]: 70 nM
SMILES: NC(=S)N/N=C(\C=C\c1ccccc1)c1ccccc1

EC50 (Trypanosoma brucei [4]): 10000 nM
Ki [5]: 47 nM
SMILES: CCCOc1cccc2nc(N)n(Cc3ccc(Cl)c(Cl)c3)c12

IC50 (Trypanosoma cruzi [6]): 300 nM
SMILES: CCC1SC(N/N=C/CCSc2ccccc2)=NC1=O (configuration not stated)
